From PubChem BioAssay AID2060912 (Molecular Pharmacology Branch, DTP, NCI, 2025)

Tested on: HUVEC/MSC spheroids viability
Assay: Human HUVEC/MSC cell line growth inhibition [KRAS2];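 on viability, T/C: percent of DMSO vehicle control luminescence so 100% = untreated viability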
Conditions: for IC50: curve of first compound; for viability, T/C: stronger effect = lower value
Procedure, shortened: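 Concentration ranges start near each agent's clinical Cmax, or at 10 microM if none is established, and fall by half-log increments. These ranges are tested as single agents and combinations on endothelial/mesenchymal stem cell spheroids lacking tumour cells.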

[1] = second compound 0.00949 µM, first compound 0.000316 µM
[2] = second compound 0.00949 µM, first compound 0.001 µM
[3] = second compound 0.00949 µM, first compound 0.00316 µM
[4] = second compound 0.00949 µM, first compound 0.01 µM
[5] = second compound 0.00949 µM, first compound 0.0316 µM
[6] = second compound 0.00949 µM, first compound 0.1 µM
[7] = second compound 0.03 µM, first compound 0.000316 µM
[8] = second compound 0.03 µM, first compound 0.001 µM
[9] = second compound 0.03 µM, first compound 0.00316 µM
[10] = second compound 0.03 µM, first compound 0.01 µM
[11] = second compound 0.03 µM, first compound 0.0316 µM
[12] = second compound 0.03 µM, first compound 0.1 µM
[13] = second compound 0.0949 µM, first compound 0.000316 µM
[14] = second compound 0.0949 µM, first compound 0.001 µM
[15] = second compound 0.0949 µM, first compound 0.00316 µM
[16] = second compound 0.0949 µM, first compound 0.01 µM
[17] = second compound 0.0949 µM, first compound 0.0316 µM
[18] = second compound 0.0949 µM, first compound 0.1 µM
[19] = second compound 0.3 µM, first compound 0.000316 µM
[20] = second compound 0.3 µM, first compound 0.001 µM
[21] = second compound 0.3 µM, first compound 0.00316 µM
[22] = second compound 0.3 µM, first compound 0.01 µM
[23] = second compound 0.3 µM, first compound 0.0316 µM
[24] = second compound 0.3 µM, first compound 0.1 µM
[25] = second compound 0.949 µM, first compound 0.000316 µM
[26] = second compound 0.949 µM, first compound 0.001 µM
[27] = second compound 0.949 µM, first compound 0.00316 µM
[28] = second compound 0.949 µM, first compound 0.01 µM
[29] = second compound 0.949 µM, first compound 0.0316 µM
[30] = second compound 0.949 µM, first compound 0.1 µM
[31] = second compound 3 µM, first compound 0.000316 µM
[32] = second compound 3 µM, first compound 0.001 µM
[33] = second compound 3 µM, first compound 0.00316 µM
[34] = second compound 3 µM, first compound 0.01 µM
[35] = second compound 3 µM, first compound 0.0316 µM
[36] = second compound 3 µM, first compound 0.1 µM
[37] = second compound 0.00949 µM, first compound 0.316 µM
[38] = second compound 0.00949 µM, first compound 1 µM
[39] = second compound 0.00949 µM, first compound 3.16 µM
[40] = second compound 0.00949 µM, first compound 10 µM
[41] = second compound 0.03 µM, first compound 0.316 µM
[42] = second compound 0.03 µM, first compound 1 µM
[43] = second compound 0.03 µM, first compound 3.16 µM
[44] = second compound 0.03 µM, first compound 10 µM
[45] = second compound 0.0949 µM, first compound 0.316 µM
[46] = second compound 0.0949 µM, first compound 1 µM
[47] = second compound 0.0949 µM, first compound 3.16 µM
[48] = second compound 0.0949 µM, first compound 10 µM
[49] = second compound 0.3 µM, first compound 0.316 µM
[50] = second compound 0.3 µM, first compound 1 µM
[51] = second compound 0.3 µM, first compound 3.16 µM
[52] = second compound 0.3 µM, first compound 10 µM
[53] = second compound 0.949 µM, first compound 0.316 µM
[54] = second compound 0.949 µM, first compound 1 µM
[55] = second compound 0.949 µM, first compound 3.16 µM
[56] = second compound 0.949 µM, first compound 10 µM
[57] = second compound 3 µM, first compound 0.316 µM
[58] = second compound 3 µM, first compound 1 µM
[59] = second compound 3 µM, first compound 3.16 µM
[60] = second compound 3 µM, first compound 10 µM

CC(C)n1nc(-c2ccc3oc(N)nc3c2)c2c(N)ncnc21 + C=CC(=O)N1CCN(c2nc(OCC3CCCN3C)nc3c2CCN(c2cccc4cccc(C)c24)C3)CC1CC#N
IC50 (second compound 0.00949 µM): 0.00633 µM
IC50 (second compound 0.03 µM): 0.0068 µM
IC50 (second compound 0.0949 µM): 0.00434 µM
IC50 (second compound 0.3 µM): 0.00335 µM
IC50 (second compound 0.949 µM): 0.000512 µM
IC50 (second compound 3 µM): 0.0222 µM
viability, T/C [1]: 80.6%
viability, T/C [2]: 64.1%
viability, T/C [3]: 56.1%
viability, T/C [4]: 43.1%
viability, T/C [5]: 48.3%
viability, T/C [6]: 39.8%
viability, T/C [7]: 69.5%
viability, T/C [8]: 65.7%
viability, T/C [9]: 44.1%
viability, T/C [10]: 54.1%
viability, T/C [11]: 46.8%
viability, T/C [12]: 42%
viability, T/C [13]: 80.1%
viability, T/C [14]: 64.7%
viability, T/C [15]: 48.4%
viability, T/C [16]: 49%
viability, T/C [17]: 41.1%
viability, T/C [18]: 40.8%
viability, T/C [19]: 59.7%
viability, T/C [20]: 67.6%
viability, T/C [21]: 50.5%
viability, T/C [22]: 43.5%
viability, T/C [23]: 40.5%
viability, T/C [24]: 36%
viability, T/C [25]: 57.5%
viability, T/C [26]: 47.5%
viability, T/C [27]: 42.7%
viability, T/C [28]: 34.5%
viability, T/C [29]: 44.6%
viability, T/C [30]: 44.3%
viability, T/C [31]: 62.5%
viability, T/C [32]: 66.8%
viability, T/C [33]: 54.1%
viability, T/C [34]: 58.6%
viability, T/C [35]: 45.3%
viability, T/C [36]: 40.7%

CC1(C)CCC(CN2CCN(c3ccc(C(=O)NS(=O)(=O)c4ccc(NCC5CCOCC5)c([N+](=O)[O-])c4)c(Oc4cnc5[nH]ccc5c4)c3)CC2)=C(c2ccc(Cl)cc2)C1 + C=CC(=O)N1CCN(c2nc(OCC3CCCN3C)nc3c2CCN(c2cccc4cccc(C)c24)C3)CC1CC#N
IC50 (second compound 0.00949 µM): 5.12 µM
IC50 (second compound 0.03 µM): 4.76 µM
IC50 (second compound 0.0949 µM): 4.68 µM
IC50 (second compound 0.3 µM): 3.93 µM
IC50 (second compound 0.949 µM): 3.55 µM
IC50 (second compound 3 µM): 3.41 µM
viability, T/C [5]: 105%
viability, T/C [6]: 86.2%
viability, T/C [37]: 96.9%
viability, T/C [38]: 91.4%
viability, T/C [39]: 83.5%
viability, T/C [40]: 3.48%
viability, T/C [11]: 99.3%
viability, T/C [12]: 92%
viability, T/C [41]: 111%
viability, T/C [42]: 94.4%
viability, T/C [43]: 76%
viability, T/C [44]: 3.1%
viability, T/C [17]: 83.1%
viability, T/C [18]: 103%
viability, T/C [45]: 84.1%
viability, T/C [46]: 94.6%
viability, T/C [47]: 75.1%
viability, T/C [48]: 1.65%
viability, T/C [23]: 73.4%
viability, T/C [24]: 75.9%
viability, T/C [49]: 78.7%
viability, T/C [50]: 96.8%
viability, T/C [51]: 61.3%
viability, T/C [52]: 1.21%
viability, T/C [29]: 67.6%
viability, T/C [30]: 80.8%
viability, T/C [53]: 72%
viability, T/C [54]: 87.5%
viability, T/C [55]: 55.3%
viability, T/C [56]: 3.31%
viability, T/C [35]: 81%
viability, T/C [36]: 86.1%
viability, T/C [57]: 94.8%
viability, T/C [58]: 71.2%
viability, T/C [59]: 54.7%
viability, T/C [60]: 0.24%

COc1cc(Nc2ncc3c(n2)-c2ccc(Cl)cc2C(c2c(F)cccc2OC)=NC3)ccc1C(=O)O + C=CC(=O)N1CCN(c2nc(OCC3CCCN3C)nc3c2CCN(c2cccc4cccc(C)c24)C3)CC1CC#N
IC50 (second compound 0.00949 µM): > 10 µM
IC50 (second compound 0.03 µM): > 10 µM
IC50 (second compound 0.0949 µM): > 10 µM
IC50 (second compound 0.3 µM): > 10 µM
IC50 (second compound 0.949 µM): 7.03 µM
IC50 (second compound 3 µM): 5.92 µM
viability, T/C [5]: 93.2%
viability, T/C [6]: 88%
viability, T/C [37]: 87.1%
viability, T/C [38]: 83.8%
viability, T/C [39]: 105%
viability, T/C [40]: 66.6%
viability, T/C [11]: 77.3%
viability, T/C [12]: 86.9%
viability, T/C [41]: 86%
viability, T/C [42]: 82.9%
viability, T/C [43]: 102%
viability, T/C [44]: 68.2%
viability, T/C [17]: 80.4%
viability, T/C [18]: 108%
viability, T/C [45]: 98.5%
viability, T/C [46]: 74.7%
viability, T/C [47]: 81.6%
viability, T/C [48]: 61.2%
viability, T/C [23]: 79.8%
viability, T/C [24]: 79.5%
viability, T/C [49]: 76.9%
viability, T/C [50]: 91.1%
viability, T/C [51]: 87.5%
viability, T/C [52]: 69%
viability, T/C [29]: 59.9%
viability, T/C [30]: 78.9%
viability, T/C [53]: 92.3%
viability, T/C [54]: 75.8%
viability, T/C [55]: 73.2%
viability, T/C [56]: 39.7%
viability, T/C [35]: 93.4%
viability, T/C [36]: 88.5%
viability, T/C [57]: 96.4%
viability, T/C [58]: 102%
viability, T/C [59]: 73.2%
viability, T/C [60]: 30.7%

COc1cc2nccc(Oc3ccc(NC(=O)C4(C(=O)Nc5ccc(F)cc5)CC4)cc3)c2cc1OC + C=CC(=O)N1CCN(c2nc(OCC3CCCN3C)nc3c2CCN(c2cccc4cccc(C)c24)C3)CC1CC#N
IC50 (second compound 0.00949 µM): 4.77 µM
IC50 (second compound 0.03 µM): 5.94 µM
IC50 (second compound 0.0949 µM): 8.74 µM
IC50 (second compound 0.3 µM): 7.29 µM
IC50 (second compound 0.949 µM): > 10 µM
IC50 (second compound 3 µM): 3.8 µM
viability, T/C [5]: 88.1%
viability, T/C [6]: 102%
viability, T/C [37]: 71.1%
viability, T/C [38]: 65.7%
viability, T/C [39]: 76.6%
viability, T/C [40]: 22%
viability, T/C [11]: 70.9%
viability, T/C [12]: 80.5%
viability, T/C [41]: 77.1%
viability, T/C [42]: 59.8%
viability, T/C [43]: 77.8%
viability, T/C [44]: 30.8%
viability, T/C [17]: 82.5%
viability, T/C [18]: 78.6%
viability, T/C [45]: 74%
viability, T/C [46]: 77.4%
viability, T/C [47]: 88.1%
viability, T/C [48]: 46%
viability, T/C [23]: 61.5%
viability, T/C [24]: 80.8%
viability, T/C [49]: 85.7%
viability, T/C [50]: 63.9%
viability, T/C [51]: 86.6%
viability, T/C [52]: 40.4%
viability, T/C [29]: 61.9%
viability, T/C [30]: 71.8%
viability, T/C [53]: 73.3%
viability, T/C [54]: 83%
viability, T/C [55]: 75.9%
viability, T/C [56]: 38.5%
viability, T/C [35]: 75.9%
viability, T/C [36]: 80.4%
viability, T/C [57]: 92.4%
viability, T/C [58]: 84.1%
viability, T/C [59]: 59.4%
viability, T/C [60]: 0.35%

Cn1ncnc1[C@H]1c2n[nH]c(=O)c3cc(F)cc(c23)N[C@@H]1c1ccc(F)cc1 + C=CC(=O)N1CCN(c2nc(OCC3CCCN3C)nc3c2CCN(c2cccc4cccc(C)c24)C3)CC1CC#N
IC50 (second compound 0.00949 µM): > 0.1 µM
IC50 (second compound 0.03 µM): > 0.1 µM
IC50 (second compound 0.0949 µM): > 0.1 µM
IC50 (second compound 0.3 µM): > 0.1 µM
IC50 (second compound 0.949 µM): > 0.1 µM
IC50 (second compound 3 µM): > 0.1 µM
viability, T/C [1]: 88%
viability, T/C [2]: 103%
viability, T/C [3]: 85.6%
viability, T/C [4]: 66.3%
viability, T/C [5]: 84.8%
viability, T/C [6]: 85.2%
viability, T/C [7]: 96.5%
viability, T/C [8]: 75.2%
viability, T/C [9]: 77.3%
viability, T/C [10]: 77.9%
viability, T/C [11]: 95.6%
viability, T/C [12]: 86.4%
viability, T/C [13]: 86.7%
viability, T/C [14]: 100%
viability, T/C [15]: 75%
viability, T/C [16]: 81.2%
viability, T/C [17]: 82.6%
viability, T/C [18]: 78.6%
viability, T/C [19]: 78.3%
viability, T/C [20]: 90.9%
viability, T/C [21]: 75.7%
viability, T/C [22]: 71.9%
viability, T/C [23]: 72.7%
viability, T/C [24]: 86.2%
viability, T/C [25]: 61.8%
viability, T/C [26]: 74.2%
viability, T/C [27]: 78.8%
viability, T/C [28]: 65.7%
viability, T/C [29]: 74.9%
viability, T/C [30]: 63.1%
viability, T/C [31]: 96.7%
viability, T/C [32]: 80.2%
viability, T/C [33]: 88.3%
viability, T/C [34]: 88.5%
viability, T/C [35]: 77.6%
viability, T/C [36]: 83.9%
